Patent publication US6538005B2, “Phenanthridine-N-oxides with PDE-IV inhibiting activity” (ALTANA Pharma AG, priority 1999, dated 2003)

Experiments:
PDE4 = assay: Inhibition of PDE4 activity (method of Bauer and Schwabe, adapted to microtiter plates); type: biochemical; details: inhibitory concentration as −log IC50 (mol/l)
From the text: The activity test can be carried out, for example, according to the method of Bauer and Schwabe. For this, the method is adapted to microfiter plates (Naunyn-Schmiedeberg's Arch. Pharmacol. 1980, 311, 193-198). The PDE reaction takes place in the first step here. In a second step, the resulting 5′-nucleotide is cleaved by a 5′-nucleotidase of the snake venom of Crotalus atrox to the uncharged nucleoside. In the third step, the nucleoside is separated from the remaining charged substrate on ion-exchange columns. The columns are eluted directly into minivials, into which 2 ml of scintillator fluid are additionally added for counting, using 2 ml of 30 mM ammonium formate (pH 6.0).
The inhibitory values determined for the compounds according to the invention [inhibitory concentration as −log IC50 (mol/l)] follow from the following Table A, in which the numbers of the compounds correspond to the numbers of the examples.

melting point: 229 to 230 °C
SMILES: COc1ccc(NC(=O)c2cccc(C3=[N+]([O-])C4CCCCC4c4cc(OC)c(OC)cc43)c2)cc1 (single isomer, unassigned; (-)) [Compound 1, (−)-cis-8,9-Dimethoxy-6-[3-(4-methoxyphenylamido)phenyl]-1,2,3,4,4a,10b-hexahydrophenanthridine-5-N-oxide]
−log IC50 (PDE4): 6.73 mol/l
